In PMC12446003, “Pharmacological characterization of linaprazan glurate (X842), a novel potassium-competitive acid blocker, in vitro and in vivo” (Frontiers in Pharmacology, 2025):
Several values for one entry are separate records, joined by “and”; a condition that tells them apart may be missing. Equal values may be shown once. Read-outs that look alike come from different tables or passages of the source. Each block holds one compound with its values, some of them ahead of it.

Legend:
Gastric H+/K+-ATPase = target: T1, Gastric H+/K+-ATPase (Oryctolagus cuniculus, UniProt P27112); experiment: Inhibition of H+/K+-ATPase activity (Malachite Green Pi assay); type: biochemical, rabbit
T1 construct: Gastric H^+/K^+-ATPase was prepared from rabbit glands; from tissue; host or cells: rabbit gastric glands
T1 sequence (P27112 whole entry): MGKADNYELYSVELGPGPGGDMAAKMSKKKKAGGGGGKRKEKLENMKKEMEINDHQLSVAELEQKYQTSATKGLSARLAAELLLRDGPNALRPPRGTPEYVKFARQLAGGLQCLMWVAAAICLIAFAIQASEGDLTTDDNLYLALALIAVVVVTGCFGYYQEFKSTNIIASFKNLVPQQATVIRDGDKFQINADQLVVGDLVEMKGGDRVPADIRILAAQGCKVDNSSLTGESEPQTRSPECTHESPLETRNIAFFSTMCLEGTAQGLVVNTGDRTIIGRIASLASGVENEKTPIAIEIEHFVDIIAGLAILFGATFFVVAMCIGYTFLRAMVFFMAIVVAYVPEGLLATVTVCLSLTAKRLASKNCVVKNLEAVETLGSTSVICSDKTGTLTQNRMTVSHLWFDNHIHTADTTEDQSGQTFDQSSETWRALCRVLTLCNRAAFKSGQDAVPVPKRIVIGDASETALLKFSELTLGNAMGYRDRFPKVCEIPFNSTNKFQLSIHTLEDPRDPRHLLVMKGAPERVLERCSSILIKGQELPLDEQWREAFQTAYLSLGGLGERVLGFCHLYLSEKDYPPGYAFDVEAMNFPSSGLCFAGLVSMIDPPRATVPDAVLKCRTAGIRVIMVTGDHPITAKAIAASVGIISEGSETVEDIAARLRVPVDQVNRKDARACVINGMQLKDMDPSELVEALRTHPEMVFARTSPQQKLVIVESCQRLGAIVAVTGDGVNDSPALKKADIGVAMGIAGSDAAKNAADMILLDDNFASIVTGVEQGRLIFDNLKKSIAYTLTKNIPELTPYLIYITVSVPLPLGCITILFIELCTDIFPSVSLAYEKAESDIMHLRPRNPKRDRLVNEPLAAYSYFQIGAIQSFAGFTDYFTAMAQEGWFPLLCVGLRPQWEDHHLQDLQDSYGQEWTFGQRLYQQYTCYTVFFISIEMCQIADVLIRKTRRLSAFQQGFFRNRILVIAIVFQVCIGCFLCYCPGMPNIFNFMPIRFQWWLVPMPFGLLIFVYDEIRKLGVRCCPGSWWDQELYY
T1 sequence (P18597 whole entry partner): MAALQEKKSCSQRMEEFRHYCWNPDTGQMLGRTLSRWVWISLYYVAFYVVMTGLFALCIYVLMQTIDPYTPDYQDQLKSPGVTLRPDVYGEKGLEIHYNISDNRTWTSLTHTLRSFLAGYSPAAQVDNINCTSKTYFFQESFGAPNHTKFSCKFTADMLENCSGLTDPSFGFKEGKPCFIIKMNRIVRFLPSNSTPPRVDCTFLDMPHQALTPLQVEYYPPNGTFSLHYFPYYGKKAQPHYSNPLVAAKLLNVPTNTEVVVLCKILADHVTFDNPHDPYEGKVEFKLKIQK
Procedure: The H^+/K^+-ATPase inhibition reaction was performed in buffer (50 mM Tris-HCl, 5 mM magnesium chloride, 10 μM valinomycin, pH 6.5) with or without 20 mM potassium chloride (KCl), and inorganic phosphate (Pi) was detected using Malachite Green solution, made from 0.1% malachite green, 1.5% hexaammonium molybdate, and 0.2% Tween-20 in a ratio of 100:25:2 ([Skou, 1982]; [Feng et al., 2011]). Gastric H^+/K^+-ATPase was prepared from rabbit glands, as described previously ([Kondo et al., 2012]; [Arikawa et al., 2012]). The reaction occurred in a 96-well plate with a total volume of 50 µL/well, including buffer, enzyme, ATP, and drug. After 30 min at 37 °C for enzyme stability, ATP was added at 0.2 mM to start the reaction, which was optimized from the titration experiments. The reaction lasted 20 min at 37 °C, followed by the addition of Malachite Green for the colorimetric assay. The enzyme control wells contained the full enzyme system, while the buffer control wells contained only buffer to correct for background values. Absorbance was measured at 620 nm using a plate reader (SpectraMax M5). The inhibition rate was calculated using the following formula, accounting for the enzyme activity in the presence and absence of K^+: Inhibition Rate %=ODwith K+and enzyme,without drug−ODwith K+and enzyme,with drug /ODwith K+and enzyme,without drug−ODwithout K+and enzyme,without drug×100 where “OD with K^+ and enzyme, without drug” is the optical density measured at 620 nm in the presence of K^+ and enzyme, without the tested drug (enzyme control wells); “OD with K^+ and enzyme, with drug” is the optical density measured at 620 nm in the presence of K^+ and enzyme, with the tested drug; and “OD without K^+ and enzyme, without drug” is the optical density measured at 620 nm in the absence of K^+ and enzyme, without the tested drug (buffer control wells).

rats = experiment: Toxicity in rats (data to be published); type: in vivo
[1] = system: histamine-stimulated acid secretion in pylorus-ligated rats; experiment: Histamine-stimulated acid secretion in pylorus-ligated rat models; type: in vivo, Sprague-Dawley rats; settings: histamine 30 mg/kg s.c., pylorus-ligated male rats
Procedure: 1.1 Histamine-stimulated acid secretion in pylorus-ligated rat models
The rats were fasted overnight with ad libitum access to water. Vehicle or X842 (2 mg/kg, 8 mg/kg) was administered orally to male Sprague-Dawley rats using a feeding catheter ina blinded manner. One hour after dosing, the pylorus was ligated under isoflurane anesthesia, and histamine (30 mg/kg/10 mL) was immediately administered subcutaneously. At 3 hours after histamine administration, the rats were sacrificed by carbon dioxide asphyxiation. The gastric contents were collected from the removed stomach. The gastric contents were collected and centrifuged at 3000 rpm for 10 minutes. The volume of each sample was measured, the gastric acid concentration was determined by acid-base titration, and the total acidity was […]
2.Supplementary Figures and Tables
2.1 Supplementary Figures

dogs = experiment: Toxicity in dogs (data to be published); type: in vivo
gastric pH = experiment: Phase I gastric pH holding time ratio; type: in vivo, humans; settings: unpublished Phase I data
[2] = system: gastric acid secretion in pylorus-ligated rats; experiment: Gastric acid inhibition in pylorus-ligated rats; type: in vivo
Procedure: The rats were fasted overnight with ad libitum access to water. Drugs and vehicle were administered orally to rats in a blinded manner. The pylorus was ligated under ether anesthesia within 1 h after drug and vehicle administration, and the abdomen was closed by suturing. At 4 h after pyloric ligation, the rats were sacrificed by CO2 asphyxiation, and the stomach was removed ([Hori et al., 2010]). The gastric contents were collected and centrifuged at 3,000 rpm for 10 min. The volume of each sample was measured, the gastric acid concentration was determined by acid-base titration, and the total acidity was calculated.

acid secretion = system: acid secretion; design: method as in Gedda et al., 2007; Scarpignato and Hunt, 2024; settings: rats; ref Gedda et al., 2007; Scarpignato and Hunt, 2024; cited from earlier work
[3] = in the presence of K+ (20 mM KCl), pH 6.5, read-out: IC50, H+/K+-ATPase inhibition
[4] = in the presence of potassium ions, rabbit gastric glands, read-out: IC50 (Figure 7A)

SMILES: Cc1cccc(C)c1CNc1cc(C(=O)NCCOC(=O)CCCC(=O)O)cn2c(C)c(C)nc12 [X842, linaprazan glurate]
Inhibitory effect on H+/K+-ATPase in the absence of K+ (Gastric H+/K+-ATPase): No measurable inhibitory effect
Fold lower inhibitory activity against H+/K+-ATPase compared with linaprazan (Gastric H+/K+-ATPase; in the presence of K+): ~10 fold
IC50 (Gastric H+/K+-ATPase; [3]): 436 nM
IC50 (Gastric H+/K+-ATPase; [4]): 436 nM
Adverse effects (acute, reproductive, teratogenic, carcinogenic toxicity) (rats): No significant adverse effects
Total acidity inhibitory rate (%) ([1]; oral 2 mg/kg): 66%
Total acidity inhibitory rate (%) ([1]; oral 8 mg/kg): 71%
Adverse effects (acute, reproductive, teratogenic, carcinogenic toxicity) (dogs): No significant adverse effects
Gastric pH ≥4 holding time ratio (HTR) (gastric pH; oral doses ≥50 mg, throughout the 24-h period): > 50%
Gastric pH ≥4 holding time ratio (HTR), nocturnal (gastric pH; oral doses ≥100 mg, nocturnal periods (12–24 h)): > 50%
Duration of acid suppression ([2]; after a single oral dose): at least 24 h
Total acidity inhibitory rate (%) ([2]; oral 0.15 mg/kg, pylorus-ligated rats (not significant)): 6%
Total acidity inhibitory rate (%) ([2]; oral 0.5 mg/kg, pylorus-ligated rats): 44%
Total acidity inhibitory rate (%) ([2]; oral 1.0 mg/kg, pylorus-ligated rats): 61%
Total acidity inhibitory rate (%) ([2]; oral 1.5 mg/kg, pylorus-ligated rats): 85%
Dose required for 50% inhibition (ID50) ([2]; oral, pylorus-ligated rats, total gastric acid): 0.55 mg/kg

Inhibitory effect on H+/K+-ATPase in the absence of K+ (Gastric H+/K+-ATPase): No measurable inhibitory effect
IC50 (Gastric H+/K+-ATPase; [3]): 40 nM and 40.2 nM
IC50 (Gastric H+/K+-ATPase; [4]): 40.2 nM
SMILES: Cc1cccc(C)c1CNc1cc(C(=O)NCCO)cn2c(C)c(C)nc12 [linaprazan]
Duration of inhibitory effect on acid secretion (acid secretion): 24 h
